The supplement of paper PMC10307832

How the values were obtained:
Test in all cases: relative viability (nuclei count vs DMSO), 5 days (fraction); higher = more cells survive
Nelarabine + Olaparib = compound: COc1nc(N)nc2c1ncn2[C@@H]1O[C@H](CO)[C@@H](O)[C@@H]1O [Nelarabine] + O=C(c1cc(Cc2n[nH]c(=O)c3ccccc23)ccc1F)N1CCN(C(=O)C2CC2)CC1 [Olaparib] (partner 8 µM)
Outline: (§1)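 For relative viability, nuclei counts in treated wells were divided by those in vehicle wells. Lung cancer cell lines had been pin-tool dosed in 1536-well plates the day after seeding and cultured for 5 days, then fixed and stained in one step (final 0.05% Triton X-100, 1% formaldehyde, 1 ug/ml Hoechst) and imaged at 4×. Doses were one drug alone or a fixed anchor-drug dose plus five library-drug doses (not always all listed) in √10 steps, and values are duplicate-plate medians.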

Nelarabine + Decitabine = compound: COc1nc(N)nc2c1ncn2[C@@H]1O[C@H](CO)[C@@H](O)[C@@H]1O [Nelarabine] + Nc1ncn([C@H]2C[C@H](O)[C@@H](CO)O2)c(=O)n1 [Decitabine] (partner 2 µM)
Outline: as §1

Nelarabine + Crizotinib = compound: COc1nc(N)nc2c1ncn2[C@@H]1O[C@H](CO)[C@@H](O)[C@@H]1O [Nelarabine] + C[C@@H](Oc1cc(-c2cnn(C3CCNCC3)c2)cnc1N)c1c(Cl)ccc(F)c1Cl [Crizotinib] (partner 1 µM)
Outline: as §1

Adavosertib + Lapatinib = compound: C=CCn1c(=O)c2cnc(Nc3ccc(N4CCN(C)CC4)cc3)nc2n1-c1cccc(C(C)(C)O)n1 [Adavosertib] + CS(=O)(=O)CCNCc1ccc(-c2ccc3ncnc(Nc4ccc(OCc5cccc(F)c5)c(Cl)c4)c3c2)o1 [Lapatinib] (partner 2 µM)
Outline: as §1

| Cell Line | relative viability (Nelarabine + Olaparib; first compound 0.01 µM) | relative viability (Nelarabine + Olaparib; first compound 0.03162 µM) | relative viability (Nelarabine + Olaparib; first compound 0.1 µM) | relative viability (Nelarabine + Olaparib; first compound 0.3162 µM) | relative viability (Nelarabine + Olaparib; first compound 1 µM) | relative viability (Nelarabine + Decitabine; first compound 0.01 µM) | relative viability (Nelarabine + Decitabine; first compound 0.03162 µM) | relative viability (Nelarabine + Decitabine; first compound 0.1 µM) | relative viability (Nelarabine + Decitabine; first compound 0.3162 µM) | relative viability (Nelarabine + Decitabine; first compound 1 µM) | relative viability (Nelarabine + Crizotinib; first compound 0.01 µM) | relative viability (Nelarabine + Crizotinib; first compound 0.03162 µM) | relative viability (Nelarabine + Crizotinib; first compound 0.1 µM) | relative viability (Nelarabine + Crizotinib; first compound 0.3162 µM) | relative viability (Nelarabine + Crizotinib; first compound 1 µM) | relative viability (Adavosertib + Lapatinib; first compound 0.01 µM) | relative viability (Adavosertib + Lapatinib; first compound 0.03162 µM) | relative viability (Adavosertib + Lapatinib; first compound 0.1 µM) | relative viability (Adavosertib + Lapatinib; first compound 0.3162 µM) |
| --- | --- | --- | --- | --- | --- | --- | --- | --- | --- | --- | --- | --- | --- | --- | --- | --- | --- | --- | --- |
| LOU-NH91 | 0.997 | 0.922 | 0.873 | 0.882 | 0.925 | 0.896 | 0.755 | 0.766 | 0.802 | 0.809 | 0.755 | 1 | 0.73 | 0.739 | 0.733 | 0.74 | 0.804 | 0.734 | 0.674 |
| LU99A | 0.276 | 0.239 | 0.252 | 0.249 | 0.26 | 1.02 | 0.91 | 0.971 | 0.886 | 0.935 | 0.557 | 0.534 | 0.582 | 0.627 | 0.622 | 1.02 | 0.96 | 0.956 | 0.639 |
| NCI-H441 | 0.5 | 0.518 | 0.561 | 0.677 | 0.697 | 0.214 | 0.222 | 0.23 | 0.231 | 0.22 | 0.715 | 0.856 | 0.723 | 0.836 | 0.716 | – | – | – | – |
| NCI-H522 | 0.619 | 0.738 | 0.651 | 0.592 | 0.639 | 0.724 | 0.763 | 0.608 | 0.684 | 0.558 | – | – | – | – | – | – | – | – | – |
| NCI-H1299 | 1 | 0.999 | 0.989 | 1.02 | 1.03 | – | – | – | – | – | 1.04 | 1.03 | 0.963 | 0.979 | 0.966 | 0.954 | 0.968 | 0.977 | 0.431 |
| NCI-H1395 | 0.465 | 0.431 | 0.403 | 0.464 | 0.519 | 0.678 | 0.65 | 0.723 | 0.7 | 0.704 | – | – | – | – | – | 0.824 | 1.31 | 1.03 | 0.78 |
| NCI-H1563 | – | – | – | – | – | – | – | – | – | – | 0.815 | 0.93 | 0.797 | 0.845 | 0.841 | 1.02 | 1.02 | 0.969 | 0.932 |
| NCI-H1648 | – | 0.927 | – | 0.889 | 0.714 | – | 0.533 | – | 0.616 | 0.441 | – | – | – | – | – | – | – | – | – |
| NCI-H1703 | 0.547 | 0.293 | 0.295 | 0.557 | 0.524 | – | – | – | – | – | 0.577 | 0.701 | 0.78 | 1.01 | 0.594 | 1.19 | 1.1 | 0.93 | 0.257 |
| NCI-H1793 | 1.36 | – | 0.891 | 1.29 | 1.05 | 0.291 | – | 0.535 | 0.595 | 0.513 | – | – | – | – | – | 0.61 | 0.714 | 0.721 | 0.647 |
| NCI-H2228 | 0.664 | 0.574 | 0.322 | 0.826 | 0.447 | – | – | – | – | – | 0.414 | 0.371 | – | 0.351 | 0.436 | 1.39 | 1.13 | 1.46 | 0.494 |
| NCI-H2342 | 0.442 | 0.432 | 0.443 | 0.395 | 0.442 | 0.758 | 0.759 | 0.703 | 0.775 | 0.734 | – | – | – | – | – | – | – | – | – |
| SW 900 | 0.843 | 0.752 | 0.96 | 0.949 | 0.797 | 0.415 | 0.399 | 0.398 | 0.39 | 0.41 | – | – | – | – | – | – | – | – | – |
